According to patent US20100324152A1, “USE OF 1,2-DECANEDIOL FOR SEBUM REDUCTION AND COSMETIC AND/OR DERMATOLOGICAL FORMULATIONS COMPRISING 1,2-DECANEDIOL” (priority 2006, published 2010):

Assays:
P. acnes = conditions: reported in EP 1 598 064 A1; cited from earlier work
[1] = Dropping point of a model sebum containing 1,2-decanediol (AOCS Cc 18-80/ASTM D 3954); assay type: physicochemical; conditions: addition of 20 wt. % 1,2-decanediol to model sebum, versus 1,2-decanediol-free model sebum
Excerpt: To check the extent to which 1,2-decanediol has a sebum-fluidizing property and is therefore capable of reducing the sebum concentration on the skin surface, and in particular in the sebaceous gland follicles, by a physical route, the influence of 1,2-decanediol on the dropping point of a model sebum was first investigated. On the basis of these publications, a model […] was developed which substantially comprises saturated and unsaturated free fatty acids, wax-like substances, triglycerides and cholesterol and, in detail, is composed of the following substances: palmitic acid, oleic acid, stearic acid, squalene, myristyl myristate, cetyl palmitate, tripalmitin, triolein and cholesterol. The exact quantitative composition of the model sebum (contents of the individual substances in per cent by weight; wt. %) can be seen from the following Table 1. [table] To investigate the influence of 1,2-decanediol on the physical properties of the model sebum, 20 wt. % 1,2-decanediol was added to the model sebum. The dropping points of the 1,2-decanediol-free model sebum and the model sebum sample containing 20 wt. % 1,2-decanediol were then determined using the method for dropping point determination according to AOCS Cc 18-80/ASTM D 3954.

reduction of the dropping point of model sebum [1]: 12.7 °C
Compound: CCCCCCCCC(O)CO (centres unmarked) [1,2-decanediol]
antibacterial action in the suspension test (P. acnes): as good as no antibacterial action
